Data as given in the supplement of paper PMC10331698.
± gives the standard deviation of the averaged measurements.

What was measured:
Assay in all cases: level (log10 ratio to DMSO vehicle control); higher = higher biomarker level / cell amount than vehicle control
[1] = compound: O=S(=O)(O)C(F)(F)C(F)(F)C(F)(F)C(F)(F)C(F)(F)C(F)(F)C(F)(F)F [Perfluoroheptanesulfonic acid] (in DMSO)
Description: (§1)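 BioMAP Diversity Plus panel of 12 human primary cell co-culture systems (3C, 4H, LPS, SAg, BT, BF4T, BE3C, CASM3C, HDF3CGF, KF3CT, MyoF, Mphg). Compounds were added 1 h before stimulation and left for 24 h (MyoF 48 h; BT 72 h for soluble read-outs or 6 d for IgG). Biomarkers were read by ELISA, cytotoxicity by SRB, PBMC viability and proliferation by Alamar Blue. Each well value was divided by the mean of 8 DMSO control wells on the same plate and log10 transformed; duplicate blinded samples were tested at 4 concentrations.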

[2] = compound: C=C(C)C(=O)OCCC(F)(F)C(F)(F)C(F)(F)C(F)(F)C(F)(F)C(F)(F)C(F)(F)C(F)(F)F [8:2 Fluorotelomer methacrylate] (in DMSO)
Description: as §1

[3] = compound: OCC(F)(F)OC(F)(F)C(F)(F)OC(F)(F)C(F)(F)OC(F)(F)CO [1H,1H,11H,11H-Perfluorotetraethylene glycol] (in DMSO)
Description: as §1

[4] = compound: OCC(F)(F)C(F)(F)C(F)(F)C(F)F [1H,1H,5H-Perfluoropentanol] (in DMSO)
Description: as §1

[5] = compound: OCC(F)(F)C(F)(F)C(F)(F)C(F)(F)C(F)(F)C(F)(F)CO [1H,1H,8H,8H-Perfluorooctane-1,8-diol] (in DMSO)
Description: as §1

[6] = compound: O=C(O)C(F)(F)C(F)(F)C(F)(F)C(F)(F)C(=O)O [Octafluoroadipic acid] (in DMSO)
Description: as §1

[7] = compound: O=C(O)C(F)(F)C(F)(F)C(F)(F)C(F)(F)C(F)(F)C(F)(F)C(F)(F)C(F)(F)F [Perfluorononanoic acid] (in DMSO)
Description: as §1

| Test System | level (log10) ([1]; 1500 nM) | level (log10) ([1]; 4400 nM) | level (log10) ([1]; 13000 nM) | level (log10) ([1]; 40000 nM) | level (log10) ([2]; 6700 nM) | level (log10) ([2]; 20000 nM) | level (log10) ([3]; 6700 nM) | level (log10) ([3]; 20000 nM) | level (log10) ([3]; 60000 nM) | level (log10) ([4]; 6700 nM) | level (log10) ([4]; 20000 nM) | level (log10) ([4]; 60000 nM) | level (log10) ([5]; 6700 nM) | level (log10) ([5]; 20000 nM) | level (log10) ([5]; 60000 nM) | level (log10) ([6]; 6700 nM) | level (log10) ([6]; 20000 nM) | level (log10) ([6]; 60000 nM) | level (log10) ([7]; 6700 nM) | level (log10) ([7]; 20000 nM) |
| --- | --- | --- | --- | --- | --- | --- | --- | --- | --- | --- | --- | --- | --- | --- | --- | --- | --- | --- | --- | --- |
| MyoF:Collagen III | -0.0035 ± 0.022 | 0.002 ± 0.0085 | -0.0195 ± 0.013 | -0.006 ± 0.025 | -0.029 ± 0.017 | -0.005 ± 0.028 | -0.002 | -0.0085 ± 0.011 | -0.0415 ± 0.0078 | -0.0005 ± 0.0092 | 0.0295 ± 0.015 | 0.037 ± 0.045 | -0.008 ± 0.013 | -0.016 | -0.005 ± 0.0028 | -0.002 ± 0.021 | -0.0085 ± 0.028 | -0.0015 ± 0.035 | -0.004 ± 0.0071 | -0.0355 ± 0.018 |
| MyoF:Collagen IV | 0.013 ± 0.018 | -0.017 ± 0.0057 | -0.012 ± 0.013 | 0.0025 ± 0.023 | -0.0265 ± 0.015 | -0.027 ± 0.025 | -0.012 ± 0.0014 | -0.0015 ± 0.011 | 0.0245 ± 0.021 | -0.001 ± 0.0014 | -0.0005 ± 0.0064 | 0.0095 ± 0.00071 | -0.014 ± 0.0057 | -0.0115 ± 0.005 | -0.011 ± 0.042 | -0.0175 ± 0.0064 | -0.016 ± 0.016 | 0.002 ± 0.021 | 0.0215 ± 0.022 | 0.221 ± 0.063 |
| MyoF:Decorin | -0.0075 ± 0.015 | -0.006 ± 0.0042 | 0.009 ± 0.0014 | 0.0615 ± 0.011 | -0.0145 ± 0.0021 | -0.004 ± 0.0057 | -0.009 | -0.013 | 0.019 ± 0.017 | 0 ± 0.089 | 0.029 ± 0.12 | 0.0455 ± 0.15 | -0.006 ± 0.0085 | 0.0195 ± 0.013 | 0.0325 ± 0.016 | 0.0005 ± 0.011 | -0.0055 ± 0.019 | -0.001 ± 0.013 | 0.0125 ± 0.028 | 0.0545 ± 0.0035 |
